{"source": "paper PMC10077338", "about": "“Galangin delivered by retinoic acid-modified nanoparticles targeted hepatic stellate cells for the treatment of hepatic fibrosis” (RSC Advances, 2023)", "key": {"aHSC": {"system": "aHSC", "design": "method as in PMID 32893252", "conditions": "cited from earlier work"}, "HF model induced by CCl4": {"system": "HF model induced by CCl4", "assay": "Anti-HF effect in vivo", "design": "species or system C57BL/6 mice", "conditions": "20 mg kg^−1 oral daily for 4 weeks, CCl4 mice", "procedure": "Forty 6 weeks-old male C57BL/6 mice (weight: 20 ± 2 g; […]) were randomly divided into five groups (n = 8 per group): control; tetrachloromethane (CCl4)-treated; free GA; GA-NPs; and RA-GA-NPs. The HF model was induced by intraperitoneal injection with 10% CCl4 (diluted in olive oil, 5 mL per kg body weight) thrice per week for 4 consecutive weeks.[33–35] The control mice received an intraperitoneal injection with an equal volume of olive oil. The mice in all treatment groups received an injection with CCl4 for 4 weeks, as well as free GA, GA-NPs, or RA-GA-NPs (20 mg kg^−1) through oral administration once daily for 4 weeks; the dose of GA was based on previous reports.[36,37] All mice were sacrificed 12 h after the last administration, and blood specimens were collected through retro-orbital bleeding. Serum was subsequently separated by centrifugation at 3500 rpm for 15 min at 4 °C and stored at −20 °C. […] is typically used to discriminate collagen fibers from tissues on histological slides. […] The levels of ALT, AST, and Hyp were determined using detection kits, respectively, according to the instructions provided by the manufacturer. In addition, the serum levels of markers, HA, LN, PC III, and Col IV were determined using ELISA kits based on the respective protocols."}, "[1]": {"assay": "Pharmacokinetics after oral administration", "format": "in vivo, Sprague–Dawley rats", "procedure": "All animal procedures were approved by the Animal Care and Use Committee of the Renmin Hospital of Wuhan University (Laboratory Animal Welfare and Ethics Committee [Institutional Animal Care and Use Committee] Issue No.: WDRM NO.20200501). […] Free GA, GA-NPs, and RA-GA-NPs were orally administered (GA concentration: 50 mg kg^−1). Subsequently, 200 μL of blood were collected at predetermined time points (i.e., 0.5, 1, 2, 4, 6, 8, 10, 12, and 24 h). The concentrations of GA in plasma were determined by HPLC. Plasma samples (200 μL) were extracted using 200 μL of acetonitrile, vortexed for 10 min, and centrifuged at 5000 rpm for 5 min. Thereafter, the supernatant was collected and filtered using a 0.45 μm nylon 66 membrane. Finally, each sample (20 μL) was injected into the HPLC system."}, "[2]": {"conditions": "both sexes, Sprague-Dawley, rat, plasma, GA 50 mg kg^−1, n = 6"}}, "data": [{"smiles": "O=c1c(O)c(-c2ccccc2)oc2cc(O)cc(O)c12", "note": "[Free GA, 3,5,7-trihydroxyflavone]", "values": [{"measurement": "concentration at which inhibition of aHSC in vitro was initiated", "setting": "aHSC", "result": 6, "unit": "µg/mL"}, {"measurement": "effect on the biomarkers of HF (HA, LN, PC III, Col IV)", "setting": "HF model induced by CCl4", "result": "modest anti-fibrotic effect"}, {"measurement": "AUC", "setting": "[1]; GA 50 mg kg^−1, n = 6", "result": "2580 ± 470", "unit": "ng·h/mL"}, {"measurement": "CL", "setting": "[1]; GA 50 mg kg^−1, n = 6", "result": "3.99 ± 0.73 (mg kg^−1)/h(μg mL^−1)"}, {"measurement": "V d", "setting": "[1]; GA 50 mg kg^−1, n = 6", "result": "20.98 ± 4.22", "unit": "L/kg"}, {"measurement": "time for which serum drug concentrations were detected / maintained", "setting": "[1]; GA 50 mg kg^−1, sampling up to 24 h", "result": "up to 12 h"}, {"measurement": "MRT", "setting": "[1]; [2]", "result": "5.25 ± 0.16", "unit": "h"}, {"measurement": "half-life", "setting": "[1]; [2]", "result": "3.64 ± 0.11", "unit": "h"}]}]}
